In PubChem BioAssay (NCI):
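Here, GI50 denotes the concentration required for 50% inhibition of growth. TGI denotes the concentration required for complete inhibition of growth.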

Assays:
Experiment in all cases: DTP human tumour cell line panel, 384-well format
UO-31 renal = system: UO-31 renal
CCRF-CEM leukemia = system: CCRF-CEM leukemia
MDA-MB-231 breast = system: MDA-MB-231 breast
OVCAR-3 ovarian = system: OVCAR-3 ovarian
MOLT-4 leukemia = system: MOLT-4 leukemia
NCI/ADR-RES ovarian = system: NCI/ADR-RES ovarian
K-562 leukemia = system: K-562 leukemia
HT29 colon = system: HT29 colon
SN12C renal = system: SN12C renal
SNB-75 CNS = system: SNB-75 CNS
NCI-H322M lung = system: NCI-H322M lung
SK-OV-3 ovarian = system: SK-OV-3 ovarian
SF-295 CNS = system: SF-295 CNS
NCI-H226 lung = system: NCI-H226 lung
NCI-H23 lung = system: NCI-H23 lung
OVCAR-5 ovarian = system: OVCAR-5 ovarian
A549 NSCLC = system: A549 NSCLC
COLO 205 colon = system: COLO 205 colon
HCT-116 colon = system: HCT-116 colon
BT-549 breast = system: BT-549 breast
OVCAR-8 ovarian = system: OVCAR-8 ovarian
SNB-19 CNS = system: SNB-19 CNS
MDA-MB-468 breast = system: MDA-MB-468 breast
HCT-15 colon = system: HCT-15 colon
LOX IMVI melanoma = system: LOX IMVI melanoma
MCF7 breast = system: MCF7 breast
UACC-257 melanoma = system: UACC-257 melanoma
HS 578T breast = system: HS 578T breast
HOP-92 NSCLC = system: HOP-92 NSCLC
KM12 colon = system: KM12 colon
PC-3 prostate = system: PC-3 prostate
MALME-3M melanoma = system: MALME-3M melanoma
IGROV1 ovarian = system: IGROV1 ovarian
OVCAR-4 ovarian = system: OVCAR-4 ovarian
HOP-62 NSCLC = system: HOP-62 NSCLC
A498 renal = system: A498 renal
SW-620 colon = system: SW-620 colon
DU-145 prostate = system: DU-145 prostate
TK-10 renal = system: TK-10 renal
HCC-2998 colon = system: HCC-2998 colon
SF-539 CNS = system: SF-539 CNS
RXF 393 renal = system: RXF 393 renal
SF-268 CNS = system: SF-268 CNS
SK-MEL-28 melanoma = system: SK-MEL-28 melanoma
UACC-62 melanoma = system: UACC-62 melanoma
ACHN renal = system: ACHN renal

## COc1cc(Nc2ncc3c(n2)-c2ccc(Cl)cc2C(c2c(F)cccc2OC)=NC3)ccc1C(=O)O
UO-31 renal
  GI50: 4.32 µM
  TGI: 20.7 µM
CCRF-CEM leukemia
  GI50: 0.0192 µM
  TGI: 0.0773 µM
MDA-MB-231 breast
  GI50: 2.72 µM
  TGI: 23.6 µM
OVCAR-3 ovarian
  GI50: 0.0915 µM
  TGI: 14.6 µM
MOLT-4 leukemia
  TGI: 0.0209 µM
NCI/ADR-RES ovarian
  GI50: 0.369 µM
  TGI: 31.4 µM
K-562 leukemia
  GI50: 0.0367 µM
  TGI: 11.5 µM
HT29 colon
  GI50: 1.49 µM
  TGI: > 100 µM
SN12C renal
  GI50: 0.0522 µM
  TGI: 17 µM
SNB-75 CNS
  GI50: 3.1 µM
  TGI: 17 µM
NCI-H322M lung
  GI50: 19.3 µM
  TGI: > 100 µM
SK-OV-3 ovarian
  GI50: 4.11 µM
  TGI: 22.6 µM
SF-295 CNS
  GI50: 0.088 µM
  TGI: 24.6 µM
NCI-H226 lung
  GI50: 1.28 µM
  TGI: 10.9 µM
NCI-H23 lung
  GI50: 1.26 µM
  TGI: 14.9 µM
OVCAR-5 ovarian
  GI50: 4.4 µM
  TGI: 30.3 µM
A549 NSCLC
  GI50: 0.0795 µM
  TGI: 16.8 µM
COLO 205 colon
  GI50: 0.0376 µM
  TGI: > 100 µM
HCT-116 colon
  GI50: 0.0293 µM
  TGI: 25.2 µM
BT-549 breast
  GI50: 0.0986 µM
  TGI: 20.1 µM
OVCAR-8 ovarian
  GI50: 7.27 µM
  TGI: 36.9 µM
SNB-19 CNS
  GI50: 9.37 µM
  TGI: 61.9 µM
MDA-MB-468 breast
  GI50: 0.0199 µM
  TGI: 0.0534 µM
HCT-15 colon
  GI50: 0.0581 µM
  TGI: 37.2 µM
LOX IMVI melanoma
  GI50: 0.725 µM
  TGI: 17.8 µM
MCF7 breast
  GI50: 1.7 µM
  TGI: > 100 µM
UACC-257 melanoma
  GI50: 13.7 µM
  TGI: 52.6 µM
HS 578T breast
  GI50: 0.0403 µM
  TGI: 12.4 µM
HOP-92 NSCLC
  GI50: 2.18 µM
  TGI: 17.2 µM
KM12 colon
  GI50: 0.0838 µM
  TGI: > 100 µM
PC-3 prostate
  GI50: 12 µM
  TGI: 45.2 µM
MALME-3M melanoma
  GI50: 17.9 µM
  TGI: 60.7 µM
IGROV1 ovarian
  GI50: 0.743 µM
  TGI: 13.5 µM
OVCAR-4 ovarian
  GI50: 9.41 µM
  TGI: 50.4 µM
HOP-62 NSCLC
  GI50: 0.179 µM
  TGI: 31.9 µM
A498 renal
  GI50: 0.0833 µM
  TGI: 29.6 µM
SW-620 colon
  GI50: 0.202 µM
  TGI: 28.1 µM
DU-145 prostate
  GI50: 10.6 µM
  TGI: 26.6 µM
TK-10 renal
  GI50: 4.77 µM
  TGI: 21.7 µM
HCC-2998 colon
  GI50: 3.24 µM
  TGI: 47.9 µM
SF-539 CNS
  GI50: 0.0651 µM
  TGI: 25.2 µM
RXF 393 renal
  GI50: 0.0513 µM
  TGI: 7.31 µM
SF-268 CNS
  GI50: 0.0113 µM
  TGI: 0.0549 µM
SK-MEL-28 melanoma
  GI50: 13.2 µM
  TGI: 51.7 µM
UACC-62 melanoma
  GI50: 0.768 µM
  TGI: 35.4 µM
ACHN renal
  GI50: 1.81 µM
  TGI: 19.7 µM
